Where a name gives a salt, the structure may show the parent alone. Read-outs that look alike come from different tables or passages of the source.
Columns and labels:
human H1 receptor [1] = biological target: T1, human H1 receptor (Homo sapiens, UniProt P35367); assay: Histamine H1 functional antagonist assay (FLIPR): determination of antagonist pA2; type: cell-based
T1 construct: expressed in transfected cells
Method: (§1) The human H1 receptor is cloned using known procedures described in the literature [Biochem. Biophys. Res. Commun., 201(2):894 (1994)]. Chinese hamster ovary (CHO) cells stably expressing the human H1 receptor are generated according to known procedures described in the literature [Br. J. Pharmacol., 117(6):1071 (1996)].
(§2) Histamine H1 functional antagonist assay: Determination of antagonist pA2 and duration
The histamine H1 receptor expressing CHO cells are seeded into non-coated black-walled clear bottom 96-well tissue culture plates as described above. Following overnight culture, growth medium is removed from each well, washed with 200 μl phosphate buffered saline (PBS) and is replaced with 50 μl loading dye (250 μM Brilliant Black, 1 μM Fluo-4 diluted in Tyrodes buffer+probenecid (145 mM NaCl, 2.5 mM KCl, 10 mM HEPES, 10 mM D-glucose, 1.2 mM MgCl2, 1.5 mM CaCl2, 2.5 mM probenecid, pH adjusted to 7.40 with NaOH 1.0 M)). Cells are incubated for 45 min at 37° C. The loading buffer is removed and the cells are washed as above, and 90 μl of Tyrodes buffer+probenecid is added to each well. 10 μl of test compound, diluted to the required concentration in Tyrodes buffer+probenecid (or 10 μl Tyrodes buffer+probenecid as a control) is added to each well and the plate is incubated for 30 min at 37° C., 5% CO2. The plates are then placed into a FLIPR™ (Molecular Devices, UK) to monitor cell fluorescence (λex=488 nm, λEM=540 nm) in the manner described in Sullivan et al., (In: Lambert DG (ed.), Calcium Signaling Protocols, New Jersey: Humana Press, 1999, 125-136) before and after the addition of 50 μl histamine over a concentration range of 1 mM-0.1 nM. The resultant concentration response curves are analysed by non-linear regression using a standard four parameter logistic equation to determine the histamine EC50, the concentration of histamine required to produce a response of 50% of the maximum response to histamine. The antagonist pA2 is calculated using the following standard equation: pA2=log(DR-1)- log[B] where DR=dose ratio, defined as EC50antagonist-treated/EC50control and [B]=concentration of antagonist.

human H1 receptor [2] = biological target: T1, human H1 receptor; assay: Histamine H1 functional antagonist assay (FLIPR): determination of functional pKi values; type: cell-based; conditions: CHO cells expressing human H1, histamine at EC80; read-out: average pKi (pKb) at H1 (converted)
From the text: H1 receptor cell line generation and FLIPR assay protocol
1. Generation of histamine H1 cell line
as §1
Histamine H1 functional antagonist assay: Determination of functional pKi values […]
10 μl of test compound, diluted to the required concentration in Tyrodes buffer+probenecid (or 10 μl Tyrodes buffer+probenecid as a control) is added to each well and the plate is incubated for 30 min at 37° C., 5% CO2. The plates are then placed into a FLIPR™ (Molecular Devices, UK) to monitor cell fluorescence (λex=488 nm, αEM=540 nm) in the manner described in Sullivan et al., (In: Lambert DG (ed.), Calcium Signaling Protocols, New Jersey: Humana Press, 1999, 125-136) before and after the addition of 10 μl histamine at a concentration that results in the final assay concentration of histamine being EC80.
Functional antagonism is indicated by a suppression of histamine induced increase in fluorescence, as measured by the FLIPR™ system (Molecular Devices). By means of concentration effect curves, functional affinities are determined using standard pharmacological mathematical analysis.

human H1 receptor [3] = biological target: T1, human H1 receptor; assay: Histamine H1 functional antagonist assay: antagonist duration after washout; type: cell-based; conditions: at one or more time points
Method: as §1, §2
To determine the antagonist duration, cells are cultured overnight in non-coated black-walled clear bottom 96-well tissue culture plates, are washed with PBS and are incubated with a concentration of antagonist chosen to give an approximate DR in the range 30-300. Following the 30 min antagonist incubation period, the cells are washed two or three times with 200 μl of PBS and then 100 μl Tyrodes buffer is added to each well to initiate antagonist dissociation. Following incubation for predetermined times, typically 30-270 min at 37° C., the cells are then washed again with 200 μl PBS and are incubated with 100 μl Tyrodes buffer containing Brilliant Black, probenecid and Fluo-4 for 45 min at 37° C., as described above. After this period, the cells are challenged with histamine in the FLIPR™ as described above. The dose ratio at each time point is used to determine the fractional H1 receptor occupancy by the following equation: fractional receptor occupancy=(DR-1)/DR. The decrease in receptor occupancy over time approximates to a straight line and is analysed by linear regression. The slope of this straight line fit is used as an index of the dissociation rate of the antagonist. The dose ratios for antagonist treated cells and for antagonist treated and washed cells at each time point are used to calculate a relative dose ratio (rel DR) which is also used as an index of antagonist duration. Antagonists with long duration of action produce rel DR values close to 1, and antagonists with short duration of action produce rel DR values that approaches the dose ratio value obtained for antagonist treatment alone.

[4] = CNS penetration (intravenous bolus or infusion at steady state, blood and brain levels); type: in vivo, rat; conditions: male CD Sprague Dawley rats
Method: (i) CNS penetration by bolus administration
Compounds are dosed intravenously at a nominal dose level of 1 mg/kg to male CD Sprague Dawley rats. Compounds are formulated in 5% DMSO/45% PEG200/50% water. Blood samples are taken under terminal anaesthesia with isoflurane at 5 min post-dose and the brains are also removed for assessment of brain penetration. Blood samples are taken directly into heparinised tubes. Blood samples are prepared for analysis using protein precipitation and brain samples are prepared using extraction of drug from brain by homogenisation and subsequent protein precipitation. The concentration of parent drug in blood and brain extracts is determined by quantitative LC-MS/MS analysis using compound-specific mass transitions.
(ii) CNS penetration following intravenous infusion at steady state
A loading dose of the compounds is given to male CD Sprague Dawley rats at a nominal dose level of 0.4 mg/kg. The compounds are then infused intravenously for 4 h at a nominal dose level of 0.1 mg/kg/h. Compounds are formulated in 2% DMSO/30% PEG200/68% water. Serial or terminal blood samples are taken at 0.5, 1.5, 2.5, 3, 3.5 and 4 h post dose. The final blood sample is collected under terminal anaesthesia with isoflurane and the brains are also removed for assessment of brain penetration. Blood samples are taken directly into heparinised tubes. Blood samples are prepared for analysis using protein precipitation and brain samples are prepared using extraction of drug from brain by homogenisation and subsequent protein precipitation. The concentration of parent drug in blood and brain extracts is determined by quantitative LC-MS/MS analysis using compound-specific mass transitions.

[5] = CHO cells expressing human H1, histamine concentration response curves, read-out: average pA2 values at H1 (converted)

T1 sequence (P35367 whole entry): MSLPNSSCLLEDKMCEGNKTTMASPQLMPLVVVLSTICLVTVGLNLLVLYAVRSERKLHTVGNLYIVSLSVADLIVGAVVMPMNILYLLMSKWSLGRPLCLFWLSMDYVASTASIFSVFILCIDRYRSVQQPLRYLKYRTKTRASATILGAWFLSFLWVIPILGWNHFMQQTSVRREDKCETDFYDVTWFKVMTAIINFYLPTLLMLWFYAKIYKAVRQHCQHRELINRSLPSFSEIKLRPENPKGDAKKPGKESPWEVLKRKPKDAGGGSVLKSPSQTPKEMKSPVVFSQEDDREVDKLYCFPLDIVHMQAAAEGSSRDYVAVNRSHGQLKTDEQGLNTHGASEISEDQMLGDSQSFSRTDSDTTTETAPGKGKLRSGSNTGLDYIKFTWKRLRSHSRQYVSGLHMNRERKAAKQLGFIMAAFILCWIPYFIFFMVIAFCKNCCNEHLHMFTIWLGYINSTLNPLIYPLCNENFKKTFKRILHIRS

Molecule CN(CCCCc1ccc(OCCCN2CCCCCC2)cc1)CCn1nc(Cc2ccc(Cl)cc2)c2ccccc2c1=O [Example 3, 4-[(4-Chlorophenyl)methyl]-2-{2-[[4-(4-{[3-(hexahydro-1H-azepin-1-yl)propyl]oxy}phenyl)butyl](methyl)amino]ethyl}-1(2H)-phthalazinone] has a Kb (human H1 receptor [1]; [5]) of under 10 nM.
Work on O=c1c2ccccc2c(Cc2ccc(Cl)cc2)nn1C[C@H]1CCCN1CCCCCc1ccc(OCCCN2CCCCCC2)cc1 [Example 6, 4-[(4-Chlorophenyl)methyl]-2-({(2R)-1-[5-(4-{[3-(hexahydro-1H-azepin-1-yl)propyl]oxy}phenyl)pentyl]-2-pyrrolidinyl}methyl)-1(2H)-phthalazinone] yielded a Kb (human H1 receptor [1]; [5]) of under 1 nM.
With COc1ccc(Cc2nn(C[C@H]3CCCN3CCCCc3ccc(OCCCN4CCCCCC4)cc3)c(=O)c3ccccc23)cc1 [Example 7, 2-({(2R)-1-[4-(4-{[3-(Hexahydro-1H-azepin-1-yl)propyl]oxy}phenyl)butyl]-2-pyrrolidinyl}methyl)-4-{[4-(methyloxy)phenyl]methyl}-1(2H)-phthalazinone diformate] the Kb (human H1 receptor [1]) was under 1 nM, the Ki (human H1 receptor [2]) was under 10 nM and the “duration of action compared with azelastine in the histamine H1 functional antagonist assay” value (human H1 receptor [3]) was “longer duration of action than azelastine”. For the same molecule, the “CNS penetration compared with azelastine” value [4] was “lower CNS penetration than azelastine”.
For O=c1c2ccccc2c(Cc2ccc(O)cc2)nn1C[C@H]1CCCN1CCCCc1ccc(OCCCN2CCCCCC2)cc1 [Example 8, 2-({(2R)-1-[4-(4-{[3-(Hexahydro-1H-azepin-1-yl)propyl]oxy}phenyl)butyl]-2-pyrrolidinyl}methyl)-4-[(4-hydroxyphenyl)methyl]-1(2H)-phthalazinone], the Kb (human H1 receptor [1]; [5]) was under 10 nM and the “duration of action compared with azelastine in the histamine H1 functional antagonist assay” value (human H1 receptor [3]) was “longer duration of action than azelastine”.
In the case of O=c1c2ccccc2c(Cc2ccc(F)cc2)nn1C[C@H]1CCCN1CCCCc1ccc(OCCCN2CCCCCC2)cc1 [Example 9, 4-[(4-Fluorophenyl)methyl]-2-({(2R)-1-[4-(4-{[3-(hexahydro-1H-azepin-1-yl)propyl]oxy}phenyl)butyl]-2-pyrrolidinyl}methyl)-1(2H)-phthalazinone], the Kb (human H1 receptor [1]; [5]) is reported as under 1 nM and the “duration of action compared with azelastine in the histamine H1 functional antagonist assay” value (human H1 receptor [3]) is reported as “longer duration of action than azelastine”.
Molecule O=c1c2ccccc2c(Cc2ccc(Cl)cc2)nn1C1CCCN(CCc2ccc(OCCCN3CCCCCC3)cc2)CC1 (stereo not shown) [Example 11, 4-[(4-Chlorophenyl)methyl]-2-{1-[2-(4-{[3-(hexahydro-1H-azepin-1-yl)propyl]oxy}phenyl)ethyl]hexahydro-1H-azepin-4-yl}-1(2H)-phthalazinone] has a Kb (human H1 receptor [1]; [5]) of under 10 nM.
O=c1c2ccccc2c(Cc2ccc(Cl)cc2)nn1C1CCCN(CCCc2ccc(OCCCN3CCCCCC3)cc2)CC1 (stereo not shown) [Example 12, 4-[(4-Chlorophenyl)methyl]-2-{1-[3-(4-{[3-(hexahydro-1H-azepin-1-yl)propyl]oxy}phenyl)propyl]hexahydro-1H-azepin-4-yl}-1(2H)-phthalazinone] showed a Kb (human H1 receptor [1]; [5]) of under 10 nM.
With O=c1c2ccccc2c(Cc2ccc(Cl)cc2)nn1C[C@H]1CCCN1CCCOc1ccc2c(c1)CCN(C1CCC1)CC2 [Example 15, 4-[(4-Chlorophenyl)methyl]-2-[((2R)-1-{3-[(3-cyclobutyl-2,3,4,5-tetrahydro-1H-3-benzazepin-7-yl)oxy]propyl}-2-pyrrolidinyl)methyl]-1(2H)-phthalazinone] the Kb (human H1 receptor [1]; [5]) was under 10 nM and the “duration of action compared with azelastine in the histamine H1 functional antagonist assay” value (human H1 receptor [3]) was “longer duration of action than azelastine”.
With O=c1c2ccccc2c(Cc2ccc(Cl)cc2)nn1C1CCCN(CCCOc2ccc3c(c2)CCN(C2CCC2)CC3)CC1 (stereo not shown) [Example 16, 4-[(4-Chlorophenyl)methyl]-2-(1-{3-[(3-cyclobutyl-2,3,4,5-tetrahydro-1H-3-benzazepin-7-yl)oxy]propyl}hexahydro-1H-azepin-4-yl)-1(2H)-phthalazinone formate salt] the “CNS penetration compared with azelastine” value [4] was “comparable CNS penetration to azelastine”.
In the case of O=C(NCCN1CCCC(n2nc(Cc3ccc(Cl)cc3)c3ccccc3c2=O)CC1)c1ccc2c(c1)CCN(C1CCC1)CC2 (stereo not shown) [Example 18, N-(2-{4-[4-[(4-Chlorophenyl)methyl]-1-oxo-2(1H)-phthalazinyl]hexahydro-1H-azepin-1-yl}ethyl)-3-cyclobutyl-2,3,4,5-tetrahydro-1H-3-benzazepine-7-carboxamide diformate salt], the Kb (human H1 receptor [1]) is reported as under 10 nM and the “duration of action compared with azelastine in the histamine H1 functional antagonist assay” value (human H1 receptor [3]) is reported as “longer duration of action than azelastine”.
In the case of O=c1c2ccncc2c(Cc2ccc(Cl)cc2)nn1C[C@H]1CCCN1CCCCc1ccc(OCCCN2CCCCCC2)cc1 [Example 23, 4-[(4-Chlorophenyl)methyl]-2-({(2R)-1-[4-(4-{[3-(hexahydro-1H-azepin-1-yl)propyl]oxy}phenyl)butyl]-2-pyrrolidinyl}methyl)pyrido[3,4-d]pyridazin-1(2H)-one], the Kb (human H1 receptor [1]) is reported as under 1 nM and the “duration of action compared with azelastine in the histamine H1 functional antagonist assay” value (human H1 receptor [3]) is reported as “longer duration of action than azelastine”.

Reference: patent US20080039444A1, “COMPOUNDS” (GLAXO GROUP LIMITED, priority 2006, published 2008)
